Experimental data from patent US7101681B1, “Nuclear hormone receptor drug screens” (Amgen, Inc., priority 1997, dated 2006).

Key:
[1] = target: T1, PPARγ (Homo sapiens, UniProt P37231); test: Fluorescent polarization assay, labeled peptide sensor binding to PPARγ; conditions: graded symbols O, I to IV, key not given
T1 sequence (P37231 238-503 limits assumed): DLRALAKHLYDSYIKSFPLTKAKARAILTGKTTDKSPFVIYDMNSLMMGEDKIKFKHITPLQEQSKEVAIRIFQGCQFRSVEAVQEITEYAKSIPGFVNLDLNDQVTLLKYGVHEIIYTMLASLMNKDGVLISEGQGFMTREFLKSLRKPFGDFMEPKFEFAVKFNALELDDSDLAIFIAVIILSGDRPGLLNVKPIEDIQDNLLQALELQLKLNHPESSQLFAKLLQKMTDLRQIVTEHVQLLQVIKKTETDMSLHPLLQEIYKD
Protocol: (§1) I. High-Throughput In Vitro Fluorescence Polarization Assay
(§2) • Sensor: Rhodamine-labeled L1X1X2L2L3 peptide (final conc.=1–5 nM) • Receptor: Glutathione-S-transferase/nuclear hormone receptor ligand binding domain fusion protein (final conc.=100–200 nM) • Buffer: 10 mM HEPES, 10 mM NaCl, 6 mM magnesium chloride, pH 7.6 Protocol: • 1. Add 90 microliters of peptide/NHR mixture to each well of a 96-well microtiter plate. • 2. Add 10 microliters of test compound per well. • 3. Shake 5 min and within 5 minutes determine amount of fluorescence polarization by using a Fluorolite FPM-2 Fluorescence Polarization Microtiter System (Dynatech Laboratories, Inc). II. Conformational Sensor—ELISA Format Assay Buffer and Solution Preparation: […]

[2] = test system: RXR; test: Fluorescent polarization assay, labeled peptide sensor binding to RXR; conditions: for Sensors Activity: Fluorescent Polarization Assay RXR: graded symbols O, I to IV, key not given
Protocol: as §1, §2

[3] = test system: LXR; test: Fluorescent polarization assay, labeled peptide sensor binding to LXR; conditions: for Sensors Activity: Fluorescent Polarization Assay LXR: graded symbols O, I to IV, key not given
Protocol: as §1, §2

| Compound | Sensors Activity: Fluorescent Polarization Assay RXR [2] | Sensors Activity: Fluorescent Polarization Assay LXR [3] | further results |
| --- | --- | --- | --- |
| TUK-1473: labeled peptide sensor R-QLLRYLLDKD (SEQ ID NO:9), SRC-1 747–756 (label R) | I+ | – | Sensors Activity: Fluorescent Polarization Assay PPARγ [1]: I+ |
| TUK-1393: labeled peptide sensor R-G-LLRYLLDK, SRC-1 748–755 | II+ | III+ | – |
| TUK-1455: labeled peptide sensor R-LRYLLD (SEQ ID NO:5), SRC-1 749–754 (R label) | – | – | Sensors Activity: Fluorescent Polarization Assay PPARγ [1]: I+ |
| TUK-1381: labeled peptide sensor R-LLQQLLTE, SRC-1 1434–1441 | I+ | – | Sensors Activity: Fluorescent Polarization Assay PPARγ [1]: I+ |
| TUK-1382: labeled peptide sensor F-G-LLQQLLTE, SRC-1 1434–1441 | – | II+ | – |
| TUK-1557: labeled peptide sensor R-ILKKLLQE (SEQ ID NO:17), synthetic sequence peptide (label R) | – | III+ | – |
| TUK-1376: labeled peptide sensor F-G-VTLLQLLLG, RIP-140 496–506 | – | II+ | – |
| TUK-1385: labeled peptide sensor R-KLVQLLTTT, SRC-1 632–640 | II+ | II+ | – |
| TUK-1390: labeled peptide sensor F-LLRYLLDK (SEQ ID NO:3), SRC-1 748–755 (fluorescent label) | II+ | – | – |
| TUK-1392: labeled peptide sensor F-G-LLRYLLDK, SRC-1 748–755 | – | II+ | – |
| CC(C)C(=O)CC[C@@H](C)[C@H]1CC[C@H]2[C@@H]3CC=C4C[C@@H](O)CC[C@]4(C)[C@H]3CC[C@]12C [24-ketocholesterol, reference compound] | – | – | LXR receptor affinity for labeled peptide sensor ([3]; ligand at 2 μM, dose response, FIG. 2): increases |
| TUK-1371: labeled peptide sensor R-ILHRLLQE, SRC-1 689–696 | – | – | Sensors Activity: Fluorescent Polarization Assay PPARγ [1]: I+ |
| 9-cis-retinoic acid [reference compound] | – | – | RXR receptor affinity for labeled peptide sensor ([2]; ligand at 1 μM, dose response, FIG. 3): increases |
| TUK-1373: labeled peptide sensor R-G-ILHRLLQE, SRC-1 689–696 | II+ | – | – |
| TUK-1453: labeled peptide sensor R-LLRYLLD (SEQ ID NO:4), SRC-1 748–754 (R label) | I+ | – | – |
| TUK-1391: labeled peptide sensor R-LLRYLLDK, SRC-1 748–755 | – | – | Sensors Activity: Fluorescent Polarization Assay PPARγ [1]: II+ |
| TUK-1380: labeled peptide sensor F-LLQQLLTE (SEQ ID NO:12), SRC-1 1434–1441 (fluorescent label) | – | II+ | – |
